The source of these data is patent US20150297782A1, “NITRIC OXIDE-RELEASING DRESSINGS” (priority 2008, published 2015).

The nature of data set [1]: Effect of varying oxygen concentrations on efficacy of 1000 ppm NO exposure. The format is cell-based. The source says:
Prior art devices for delivering NO to treat wounds have required a closed environment. […] The oxygen may be environmental oxygen or may be delivered via an oxygen generating component within the dressing or apparatus.
The effect of various oxygen concentration levels on the efficacy of 1000 ppm treatment of NO was studied.

The test system of data set [2] is bacterial burden. Conditions: "It has been shown", no test described; cited from earlier work.
For data set [3] the following is noted: humans, delivery to an infection site; cited from earlier work.

For the compound `[N]=O` [NO, Nitric oxide], the CFU/mL in data set [1] (0% Oxygen, 2 hour) is 100,000 CFU/mL; in data set [1] (0% Oxygen, 4 hour), 100,000 CFU/mL; in data set [1] (14.5% Oxygen, 2 hour), 2730 CFU/mL; in data set [1] (14.5% Oxygen, 3 hour), 78 CFU/mL; in data set [1] (14.5% Oxygen, 4 hour), 0 CFU/mL; in data set [1] (21% Oxygen, 1 hour) it was 100,000 CFU/mL. Further, the CFU/mL is given as 10,000 CFU/mL in data set [1] (21% Oxygen, 2 hour); 0 CFU/mL in data set [1] (21% Oxygen, 3 hour); 0 CFU/mL in data set [1] (21% Oxygen, 4 hour). In data set [2], the “reduction of the bacterial burden” value was 5-6 log10 cfu/mL. In addition, the side-effects entry in data set [3] is listed as “does not have significant side-effects”.
